In general, IC50 refers to the concentration that gives 50% inhibition.

This is an account of results in patent US6413967B1, “Inhibition of novel calcium entry pathway in electrically non-excitable cells acting as an anti-proliferative therapy” (The University of Virginia Patents Foundation, priority 1995, dated 2002).

Assay [1] deals with VG Ca^2+ current in Jurkat cells. As to the kind of experiment: perforated patch clamp, voltage gated (VG) Ca2+ current. Particulars: for effect on the VG Ca^2+ current: amiloride 100 μM, MnCl2 300 μM, NiCl2 1 mM, W-7 alone (unstimulated current). It is filed as cell-based, human. The method, then:
(§1) All recordings were performed using the perforated patch method (Horn et al, J. Gen. Physiol. (1988) 92:145) of the gigaseal patch clamp technique (Hammil et al, Pflugers Arch (1981) 391:85) with microelectrodes of 5-10 megohm series resistance. In all solutions for voltage clamp, K^+ was replaced with Cs^+ to block outward K^+ currents (Fox et al, J. Physiol. (Lond.) (1987) 392:149). The bath solution contained (in mM): NaCl, 155; CsCl, 4.5; CaCl2, 2; MgCl2, 1; D-glucose, 5; HEPES, 10 (pH 7.4 with NaOH). The pipette solution contained (in mM): CsCl, 55; Cesium methanesulfonate, 70; CaCl2, 1; MgCl2, 7; HEPES, 10 (pH 7.3 with NaOH). Nystatin was made as a stock solution of 6 mg/100 μl DMSO, and 2 μl of the stock was added to 1 ml of the pipette solution for use. Both pipette and bath solutions were 290-300 mOsm. Experiments were performed on cells at room temperature using the Axopatch-1D patch clamp (Axon Instruments, Foster City, Calif.) after correction of junction potentials and leak subtraction. Records were low-pass filtered at 500 Hz, and the data were collected, stored and analyzed using the pClamp software program (Axon Instruments). For the non-voltage gated current traces, data is presented either as the tracing from a chart recorder or from the digital data in which the current was measured at 5 second intervals and plotted as individual points.
A general note: Patch clamp records ionic current or voltage across a cell membrane.

Assay [2] relates to NVG current in Jurkat cells. As to the kind of experiment: perforated patch clamp, non-voltage gated (NVG) current. Type of assay: cell-based, human. Particulars: for effect on the thapsigargin-induced NVG current: membrane potential −60 mV, 300 nM thapsigargin, amiloride 100 μM, MnCl2 300 μM, NiCl2 1 mM, W-7 30 μM, NDGA 10 μM. As for the experimental part: as §1
Assay [3] concerns Ca^2+ entry pathway in Jurkat cells. Particulars: previously demonstrated (Haverstick et al 1993); cited from earlier work.
The test system is the same in assay [4]. As to the kind of experiment: thapsigargin-stimulated Ca2+ entry measured with Ca2+-sensitive dyes (indo-1, fluo-3). It is filed as cell-based, human. Particulars: 300 nM thapsigargin, amiloride 100 μM (fluo-3), Ni^2+ 1 mM, NDGA 10 μM (indo-1). As for the experimental part: Lymphocytes were suspended in culture medium at 37° C. for 1 h in the presence of 1 μM of the Ca^2+ indicator dye indo-1 /AM. Cells were washed twice in buffer A (140 mM NaCl, 3 mM KCl, 1 mM CaCl2, 1 mM MgCl2, 0.1% D-glucose, 1% FBS, 10 mM HEPES, pH 7.4) and were suspended at a final concentration of 1×10^6 cells/ml in buffer A. The excitation wavelength was 340 nm and emission was monitored at 398 nm in an SLM 8000 spectrofluorometer (SLM/Aminco, Urbana, Ill.), with the temperature maintained at 37° C. Data are plotted as relative fluorescence intensity at 398 nm as a measure of [Ca^2+]i. For FIG. 7, indo-1 emission was monitored at 398 nm and 480 nm and [Ca^2+]i was determined as described previously (Gray et al, J. Immunol (1987) 138:63; Haverstick et al, Mol. Biol. Cell (1993) 4:173).
Jurkat cells were loaded with indo-1/AM as described above. The excitation wavelength was 340 nm and emission was measured at 441 nm. The fluorescence of indo-1 at 441 nm is insensitive to changes in [Ca^2+]i (Sage et al, Biochem. J. (1989) 258:923) and is plotted as relative fluorescence intensity.
Because amiloride interferes with the fluorescence of indo-1 (Wacholtz et al, J. Immunol. (1992) 149:1912), fluo-3 was used to monitor [Ca^2+]i in the presence of amiloride. Jurkat cells were suspended in culture medium at 37° C. for 1 h in the presence of 1 μM fluo-3/AM and 1 mM probenecid to decrease dye leakage (DiVirgilio et al, Methods Cell Biol. (1989) 31:453). After two washes in buffer A, cells were suspended at a concentration of 1×10^6 cells/ml in buffer A with 1 mM probenecid and were maintained in a cuvette at 37° C. The excitation wavelength was 506 nm and the emission was monitored at 526 nm. Data are presented sa relative fluorescence intensity at 526 nm.

Assay [5] relates to [Ca^2+]i in Jurkat T cells. As to the kind of experiment: receptor-stimulated Ca2+ influx in Jurkat T cells (anti-CD3 mAb OKT3). It is filed as cell-based, human. To be noted: Homo sapiens, Jurkat; maximal [Ca^2+]i after anti-CD3 mAb OKT3; drug 1 min prior. As for the experimental part: Initially, all drugs are screened using Jurkat T cells incubated with indo-1/AM as outlined below. In the event that there is an effect of the drug on the maximum [Ca^2+]i reached following treatment of the cells with the anti-CD3 mAb […], the drug is evaluated for any effects on the spectral characteristics of indo-1 as outlined in Haverstick and Gray, Mol. Biol. Cell (1993) 4:173. If there is an effect of the drug on the spectral characteristics of indo-1 , the drug is further examined for spectral effects on the combination of fura-red and fluo-3. If there is no effect of the drug on the fura-red/fluo-3 combination, the drug is examined for effects on the maximum [Ca^2+]i reached following OKT3 treatment of cells incubated with 5 μM fura-red and […] as outlined below.
Jurkat cells are incubated in RPMI-1640 plus 5% fbs in the presence of the acetoxymethyl ester of either indo-1 (1 μM) or the combination of fura-red (5 μM) with fluo-3 (1 μM) for one hour at 37° C. Cells are washed three times in buffer A [[…] 4-(2-hydroxyethyl)-1-piperazine ethanesulfonic acid (HEPES), pH 7.4, 3 MM KCl, 1 mM MgCl2, 1 mM CaCl2, 140 mM NaCl, 0.1% glucose] containing 1% fbs and suspended to a final concentration of 1×10^6/ml. Cells are then placed in the 37° C. jacketed cell holder of the SLM 8000C. Antigen receptor engagement is mimicked by the addition of the anti-CD3 monoclonal antibody OKT3 (Gray et al, J. Exp. Med. (1988) 167:1963; Gray et al, J. Immunol. 142:1631). The effect of drug added prior to receptor stimulation or at the plateau phase of Ca^2+ entry is determined as follows:
Prior drug: 10 or 30 μM drug @ 30 seconds, 1 μg/ml OKT3 at 90 seconds
Post drug: 1 μg/ml OKT3 at 30 second, 10 or 30 μM drug @ 120 seconds

Another assay concerns Jurkat T cells. As to the kind of experiment: Jurkat cell proliferation, tetrazolium dye. It is filed as cell-based, human. Particulars: Homo sapiens, Jurkat; incubation 44 to 48 h; read-out: JURKAT prolif IC50. As for the experimental part:
(§2) The effect of various drugs on the proliferation of Jurkat T cells, MDA-468 human breast cancer cells and PC3 human prostate cancer cells was determined by incubating the cells with the indicated concentrations of drug for 48 hours. The number of viable cells remaining at the end of the incubation period was evaluated using the procedure outlined in Example 4.
(§3) Cells are plated in triplicate in a 96-well flat-bottomed plate (Jurkat: 5e4 cells/well in RPMI-1640 plus 5% fbs; MDA468: 2.5e4 per well in DMEM plus 5% fbs and 11 μg/ml insulin) in the absence (control) or presence of drug at 3, 10, 30, and 100 μM. An additional control of 100 μM drug in RPMI-1640 plus 5% fbs or DMEM plus 5% fbs and 11 μg/Ml insulin with no cells is included with each run to control for possible drug interactions with the dye. The plate is then placed in a 5% CO2 37° C. incubator for 44 to 48 hours. 20 μl of dye solution containing a tetrazolium dye (3-(4,5-dimethylthiazol-2-yl)-5-(3-carboxymethoxyphenyl)-2-(4-sulfophenyl)-2H-tetrazolium, Owen's reagent) plus coupling reagent (phenazine methosulfate) is added to each well, the plate is returned to the incubator, and the absorbance at 490 nm is read using an ELISA plate reader 3 to 4 h (Jurkat cells) or 2 to 3 h (MDA-468 cells) later. All data are presented as percent of control (no drug addition). With this protocol, it is possible to determine the effect of 5 drugs at 4 concentrations in a single 96-well plate as outlined below: […]

Assay [6] relates to MDA-468 human breast cancer cells. As to the kind of experiment: MDA-468 cell proliferation, tetrazolium dye. It is filed as cell-based. Particulars: Homo sapiens; incubation 44 to 48 h; read-out: MDA-468 prolif IC50. As for the experimental part:
as §2, §3

In assay [7] the test system is human prostate cancer cell line PC3. As to the kind of experiment: PC3 cell proliferation, tetrazolium dye. It is filed as cell-based. Particulars: PC-3, 5×10^4 PC3 cells, 48 hours.
The test system of assay [8] is [Ca^2+]i in MDA-468 cells. As to the kind of experiment: EGF receptor-stimulated Ca2+ influx in MDA-468 cells. To be noted: Homo sapiens; maximal [Ca^2+]i, Ca^2+ entry triggered by 50 ng/ml EGF. Type of assay: cell-based.

For the compound `NCCCCCCNS(=O)(=O)c1cccc2c(Cl)cccc12` [W-7, N-(6-aminohexyl)-5-chloro-1-naphthalenesulfonamide], the “effect on the VG Ca^2+ current” value in assay [1] is “not affected”. Further, the “effect on thapsigargin-mediated augmentation of the VG Ca^2+ current” value in assay [1] (drug added before 300 nM thapsigargin, W-7 30 μM) was “blocked the augmentation”. In assay [2], the “effect on the thapsigargin-induced NVG current” value is “not affected”. In [3], the “effect on Ca^2+ influx induced by thapsigargin, by Ca^2+-sensitive dyes” value is given as “eliminates”.
Regarding `C/C=C(/C)C(=O)O[C@H]1C(C)=C2[C@H]([C@@H]1OC(=O)CCCCCCC)[C@@](C)(OC(C)=O)C[C@H](OC(=O)CCC)[C@@]1(O)[C@H]2OC(=O)[C@@]1(C)O` [thapsigargin], the “mean maximum VG Ca^2+ current following addition” value in assay [1] (300 nM thapsigargin, n=10, unstimulated 18.7 pA) turned out to be 30.6 pA. Moreover, the “mean maximum magnitude of the induced NVG current” value in [2] (imposed membrane potential −60 mV, n=38) stood at 3.6 pA.
In the case of `N=C(N)NC(=O)c1nc(Cl)c(N)nc1N` [amiloride], the “effect on thapsigargin-stimulated Ca^2+ entry” value in assay [4] is “no effect”. The “effect on the VG Ca^2+ current” value in assay [1] is on record as “not blocked”. Besides, the “effect on the thapsigargin-induced NVG current” value is given as “virtually eliminated” in [2] and “completely inhibited” in [2] (listed as Amiloride).
Turning to `[Cl][Ni][Cl]` [Ni^2+, NiCl2], the “effect on thapsigargin-stimulated Ca^2+ entry” value in assay [4] is “blocked Ca^2+ entry”. Also, in assay [1], the “effect on the VG Ca^2+ current” value is listed as “eliminated the VG Ca^2+ current”. The “effect on the thapsigargin-induced NVG current” value in [2] is “blocked”.
Regarding `[Cl][Mn][Cl]` [MnCl2], the “increase of the VG Ca^2+ current” value in assay [1] (0.3 mM Mn^2+ in medium containing 2 mM Ca^2+) is listed as “about 10%”. In addition, the “effect on the VG Ca^2+ current” value in assay [1] is recorded as “not blocked”. Moreover, the “effect on the thapsigargin-induced NVG current” value in assay [2] was “reversibly blocked”.
Take `CC(CN1c2ccccc2Sc2ccccc21)N(C)C` (stereo not drawn) [promethazine, N,N,α-trimethyl-10H -phenothiazine-10-ethanamine]: the concentration for half-maximal inhibition (IC50) in [5] is 65 µM; in the assay on Jurkat T cells, 3.5 µM; in assay [6], 30 µM; in assay [7] it was about 40 µM; in assay [8], 105 µM.
Consider `CN(C)CCCN1c2ccccc2Sc2ccc(Cl)cc21` [chloropromazine, 2-chloro-10-[3-dimethylaminopropyl]-phenothiazine], for which the IC50 in [5] was 25 µM; with Jurkat T cells it was 90 µM; in assay [6], 20 µM; in assay [8] it was 5 µM.
